From PubChem BioAssay AID1387 (Sanford-Burnham Center for Chemical Genomics, 2008)

System: CSM14.1 cells, thapsigargin, p-p38/p38 MSD immunoassay
Assay: p-p38/p38 reduction after thapsigargin stress – cell lysate, CSM14.1 cells, immunoblotting, mechanism study for ER stress cell death project, dose response (AID 1387)
Details: at 10 µM (top of the series)

COc1ccc(C2CC(=O)C3=C(C2)Nc2ccccc2NC3c2cccc(Oc3ccccc3)c2)cc1OC (stereo unspecified)
relative p-p38/p38 ratio, lower = inhibition: 0
